Data taken from patent US9061026B2, “Oligomer-diarylpiperazine conjugates” (priority 2008, dated 2015).
Where two headings read alike, the source gives them in different places.

Tests used:
Opiate δ = Opiate δ (Homo sapiens, UniProt P41143); experiment: Opiate δ receptor binding (Table 1); settings: for Ki: Table 1; for Fold change: Opiate δ Ki relative to ±BW373U86 (=1)
[1] = target: Opiate Receptor, delta (OP1, DOP) (Homo sapiens, UniProt P41143); experiment: Radioligand competition binding, Opiate Receptor, delta (OP1, DOP), [3H]-naltrindole, CHO cells
Chain of Opiate Receptor, delta (OP1, DOP) (P41143 whole entry): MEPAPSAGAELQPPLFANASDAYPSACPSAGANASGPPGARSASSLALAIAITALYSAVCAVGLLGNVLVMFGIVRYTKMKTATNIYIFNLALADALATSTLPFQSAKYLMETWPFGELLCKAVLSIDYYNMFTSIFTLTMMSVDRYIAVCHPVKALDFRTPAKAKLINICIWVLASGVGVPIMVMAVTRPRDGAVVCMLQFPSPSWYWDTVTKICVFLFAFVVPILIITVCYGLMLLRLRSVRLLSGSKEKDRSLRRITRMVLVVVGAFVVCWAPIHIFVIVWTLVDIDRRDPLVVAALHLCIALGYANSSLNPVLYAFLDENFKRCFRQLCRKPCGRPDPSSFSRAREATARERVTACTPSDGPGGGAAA

[2] = target: Opiate Receptor, μ (OP3, MOP) (Homo sapiens, UniProt P35372); experiment: Radioligand competition binding, Opiate Receptor, μ (OP3, MOP), [3H]-diprenorphine, CHO-K1 cells
Chain of Opiate Receptor, μ (OP3, MOP) (P35372 whole entry): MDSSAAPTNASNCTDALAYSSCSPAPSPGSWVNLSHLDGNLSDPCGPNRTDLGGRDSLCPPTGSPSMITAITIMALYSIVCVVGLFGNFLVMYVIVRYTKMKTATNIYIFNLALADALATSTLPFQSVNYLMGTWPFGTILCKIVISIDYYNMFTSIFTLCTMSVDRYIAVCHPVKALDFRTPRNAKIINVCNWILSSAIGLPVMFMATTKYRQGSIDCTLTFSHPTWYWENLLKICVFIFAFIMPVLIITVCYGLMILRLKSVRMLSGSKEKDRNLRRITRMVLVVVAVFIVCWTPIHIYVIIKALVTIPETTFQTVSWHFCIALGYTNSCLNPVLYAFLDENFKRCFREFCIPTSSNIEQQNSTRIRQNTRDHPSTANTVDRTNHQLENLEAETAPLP

[3] = target: T1, Opiate Receptor, kappa (OP2, KOP) (Homo sapiens, UniProt P41145); experiment: biochemical; assay type: binding
T1 construct: expressed in transfected cells; host or cells: HEK-293 cells, membrane preparation
T1 sequence (P41145 whole entry): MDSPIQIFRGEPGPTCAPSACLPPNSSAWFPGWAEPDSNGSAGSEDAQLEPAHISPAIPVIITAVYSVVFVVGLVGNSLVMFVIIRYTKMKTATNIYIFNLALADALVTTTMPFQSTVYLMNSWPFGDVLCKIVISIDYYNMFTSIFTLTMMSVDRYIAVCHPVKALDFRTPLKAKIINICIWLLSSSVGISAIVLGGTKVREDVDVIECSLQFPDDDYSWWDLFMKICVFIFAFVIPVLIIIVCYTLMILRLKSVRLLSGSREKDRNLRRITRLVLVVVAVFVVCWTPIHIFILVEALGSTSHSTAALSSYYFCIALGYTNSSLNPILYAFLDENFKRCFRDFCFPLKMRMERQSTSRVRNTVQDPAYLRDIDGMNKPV

Delta Opioid Receptor = Delta Opioid Receptor Binding, forebrain, representative data set; settings: radioligand [3H]Enkephalin, DPDPE, read-out: Kd (binding affinity)
Protocol: Binding characteristics for various receptors including, but not limited to, delta, kappa, and mu opioid receptors are determined.

Chain of Opiate δ (P41143 whole entry): as the sequence (P41143 whole entry) above

C=CCN1C[C@H](C)N([C@H](c2ccc(C(=O)N(CC)CC)cc2)c2cccc(OCCOCCOCCOC)c2)C[C@H]1C (racemic) [mPEG-3 ± BW373U86, (±)-4-[(αR)-α-((2S,5R)-4-Allyl-2,5-dimethyl-1-piperazinyl)-3-O-methoxy(triethylene glycol)benzyl]-N,N-diethylbenzamid]
Ki (Opiate δ; read-out: Opiate δ, Ki): ~415 nM

CCN(CC)C(=O)c1ccc([C@H](c2cccc(O)c2)N2C[C@@H](C)N(CCOCCOCCOC)C[C@@H]2C)cc1 (racemic) [mPEG3-N-(+/−)-BW373U86, (±)-4-[(αR)-α-((2S,5R)-4-methoxy(triethylene glycol)-2,5-dimethyl-1-piperazinyl)-3-hydroxybenzyl]-N,N-diethylbenzamide]
IC50 ([1]; read-out: IC50): 764 nM
Ki ([1]; read-out: Ki): 269 nM
IC50 ([2]; read-out: IC50): 9370 nM
Ki ([2]; read-out: Ki): 3810 nM

Br.Br.C=CCN1CC(C)N(C(c2ccc(C(=O)N(CC)CC)cc2)c2cccc(O)c2)CC1C (racemic) [(+/−) BW373U86 dihydrobromide, reference compound]
IC50 ([1]; read-out: IC50): 3.26 nM
Ki ([1]; read-out: Ki): 1.15 nM
nH [3]: 0.92
IC50 ([3]; read-out: IC50): 556 nM
Ki ([3]; read-out: Ki): 223 nM
nH [2]: 0.92
IC50 ([2]; read-out: IC50): 659 nM
Ki ([2]; read-out: Ki): 268 nM

CCN(CC)C(=O)c1ccc(C(c2cccc(OCCOCCOCCOCCOCCOCCOCCOC)c2)N2CCN(Cc3ccccc3)CC2)cc1 (centres unmarked) [mPEG7-N-benzyl-deallyl-demethyl-BW373U86, 4-[(4-Benzyl-1-piperazinyl)-3-O-methoxy(heptaethyleneglycol)benzyl]-N,N-diethylbenzamid]
IC50 [1]: 106 nM
Ki [1]: 37.4 nM
nH [1]: 1.08

CCN(CC)C(=O)c1ccc(C(c2cccc(OCCOCCOCCOC)c2)N2CCN(Cc3ccccc3)CC2)cc1 (centres unmarked) [mPEG3-N-benzyl-deallyl-demethyl-BW373U86, 4-[(4-Benzyl-1-piperazinyl)-3-O-methoxy(triethyleneglycol)benzyl]-N,N-diethylbenzamide]
IC50 [1]: 212 nM
Ki [1]: 74.7 nM
nH [1]: 1.50

C=CCN1C[C@H](C)N([C@H](c2ccc(C(=O)N(CC)CC)cc2)c2cccc(O)c2)C[C@H]1C (racemic) [±BW373U86, (±)-4-[(αR)-α-((2S,5R)-4-Allyl-2,5-dimethyl-1-piperazinyl)-3-hydroxbenzyl]-N,N-diethylbenzamide, reference compound]
Ki (Opiate δ; Opiate δ, Ki (nM)): 0.36 nM

C=CCN1CCN(C(c2ccc(C(=O)N(CC)CC)cc2)c2cccc(O)c2)CC1 (centres unmarked) [demethyl-BW373U86, 4-[(4-Allyl-1-piperazinyl)-3-hydroxbenzyl]-N,N-diethylbenzamid]
nH [1]: 1.10
IC50 ([1]; read-out: IC50): 7.09 nM
Ki ([1]; read-out: Ki): 2.5 nM
nH [3]: 0.87
IC50 ([3]; read-out: IC50): 1000 nM
Ki ([3]; read-out: Ki): 401 nM
nH [2]: 1.02
IC50 ([2]; read-out: IC50): 11000 nM
Ki ([2]; read-out: Ki): 4450 nM

C=CCN1C[C@H](C)N([C@H](c2ccc(C(=O)N(CC)CC)cc2)c2cccc(O)c2)C[C@H]1C [(+) BW373U86, (+)-4-[(αR)-α-((2S,5R)-4-Allyl-2,5-dimethyl-1-piperazinyl)-3-hydroxbenzyl]-N,N-diethylbenzamide, reference compound]
IC50 [1]: 1 nM
Ki [1]: 0.354 nM
nH [1]: 0.91
IC50 [3]: 223 nM
Ki [3]: 89.2 nM
nH [3]: 0.78
IC50 [2]: 309 nM
Ki [2]: 126 nM
nH [2]: 0.83

C=CCN1CCN(C(c2ccc(C(=O)N(CC)CC)cc2)c2cccc(OCCOCCOCCOCCOCCOCCOCCOC)c2)CC1 (centres unmarked) [mPEG7-demethyl-BW373U86, 4-[(4-Allyl-1-piperazinyl)-3-O-methoxy(heptaethylene glycol)benzyl]-N,N-diethylbenzamide]
IC50 ([1]; read-out: IC50): 3470 nM
Ki ([1]; read-out: Ki): 1220 nM

DPDPE [[3H]Enkephalin, DPDPE]
Kd (Delta Opioid Receptor): 2.1 nM

C=CCN1C[C@H](C)N([C@H](c2ccc(C(=O)N(CC)CC)cc2)c2cccc(OCCOCCOCCOC)c2)C[C@H]1C [mPEG-3 + BW373U86, (+)-4-[(αR)-α-((2S,5R)-4-Allyl-2,5-dimethyl-1-piperazinyl)-3-O-methoxy(triethylene glycol)benzyl]-N,N-diethylbenzamid]
Ki (Opiate δ; read-out: Opiate δ, Ki): 491 nM
IC50 ([1]; read-out: IC50): 723 nM
Ki ([1]; read-out: Ki): 255 nM

C=CCN1C[C@H](C)N([C@H](c2ccc(C(=O)N(CC)CC)cc2)c2cccc(OCCOCCOCCOCCOCCOCCOCCOC)c2)C[C@H]1C [mPEG-7 + BW373U86, (+)-4-[(αR)-α-((2S,5R)-4-Allyl-2,5-dimethyl-1-piperazinyl)-3-O-methoxy(heptaethylene glycol)benzyl]-N,N-diethylbenzamid]
Fold change (Opiate δ): 242.7
Ki (Opiate δ; read-out: Opiate δ, Ki): 864 nM

C=CCN1CCN(C(c2ccc(C(=O)N(CC)CC)cc2)c2cccc(OCCOCCOCCOC)c2)CC1 (centres unmarked) [mPEG3-demethyl-BW373U86, 4-[(4-Allyl-1-piperazinyl)-3-O-methoxy(triethyleneglycol)benzy]-N,N-diethylbenzamid]
IC50 ([1]; read-out: IC50): 6050 nM
Ki ([1]; read-out: Ki): 2130 nM

C=CCN1C[C@H](C)N([C@H](c2ccc(C(=O)N(CC)CC)cc2)c2cccc(OCCOCCOCCOCCOCCOCCOCCOC)c2)C[C@H]1C (racemic) [mPEG-7 ± BW373U86, (±)-4-[(αR)-α-((2S,5R)-4-Allyl-2,5-dimethyl-1-piperazinyl)-3-O-methoxy(heptaethylene glycol)benzyl]-N,N-diethylbenzamid]
Fold change (Opiate δ): ~298
Ki (Opiate δ; read-out: Opiate δ, Ki): ~1330 nM

CCN(CC)C(=O)c1ccc(C(c2cccc(O)c2)N2CCN(Cc3ccccc3)CC2)cc1 (centres unmarked) [N-benzyl-deallyl-demethyl-BW373U86, 4-[(4-Benzyl-1-piperazinyl)-3-hydroxbenzyl]-N,N-diethylbenzamid]
IC50 [1]: 1.33 nM
Ki [1]: 0.47 nM
nH [1]: 0.99
IC50 [3]: 2370 nM
Ki [3]: 946 nM
nH [3]: 0.95
IC50 [2]: 2750 nM
Ki [2]: 1110 nM
nH [2]: 0.90
